In ChEMBL document CHEMBL1142463 (Bioorg Med Chem Lett, 2008):

Tests used:
[1] = target: T1, Phospholipase A2, membrane associated (Rattus norvegicus, UniProt P14423); experiment: Inhibition of rat sPLA2 group 2A
T1 sequence (P14423 whole entry): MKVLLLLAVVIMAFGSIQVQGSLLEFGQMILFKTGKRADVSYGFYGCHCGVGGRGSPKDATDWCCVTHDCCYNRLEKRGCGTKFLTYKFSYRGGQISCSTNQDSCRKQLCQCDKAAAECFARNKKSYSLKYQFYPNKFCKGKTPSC

[2] = target: T2, Phospholipase A2, membrane associated (Mus musculus, UniProt P31482); experiment: Inhibition of mouse sPLA2 group 2A
T2 sequence (P31482 whole entry): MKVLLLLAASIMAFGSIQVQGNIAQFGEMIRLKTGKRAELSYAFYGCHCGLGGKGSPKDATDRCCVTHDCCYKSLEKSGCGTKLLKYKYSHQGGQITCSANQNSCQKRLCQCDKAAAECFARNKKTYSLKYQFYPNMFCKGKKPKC

[3] = target: T3, Phospholipase A2, membrane associated (Homo sapiens, UniProt P14555); experiment: Inhibition of human sPLA2 group 2A
T3 sequence (P14555 whole entry): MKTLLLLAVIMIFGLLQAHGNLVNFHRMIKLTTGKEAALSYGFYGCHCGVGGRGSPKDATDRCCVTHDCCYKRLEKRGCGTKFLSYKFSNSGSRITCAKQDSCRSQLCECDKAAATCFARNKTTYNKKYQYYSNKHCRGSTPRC

Phospholipase A2 group V [4] = target: T4, Phospholipase A2 group V (Mus musculus, UniProt P97391); experiment: Inhibition of mouse sPLA2 group 5
T4 sequence (P97391 whole entry): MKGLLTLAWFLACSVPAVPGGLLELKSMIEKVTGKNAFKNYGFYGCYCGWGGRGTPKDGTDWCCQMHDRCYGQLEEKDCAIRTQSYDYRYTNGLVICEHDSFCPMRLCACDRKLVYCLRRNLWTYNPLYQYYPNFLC

Phospholipase A2 group V [5] = target: T5, Phospholipase A2 group V (Homo sapiens, UniProt P39877); experiment: Inhibition of human sPLA2 group 5
T5 sequence (P39877 whole entry): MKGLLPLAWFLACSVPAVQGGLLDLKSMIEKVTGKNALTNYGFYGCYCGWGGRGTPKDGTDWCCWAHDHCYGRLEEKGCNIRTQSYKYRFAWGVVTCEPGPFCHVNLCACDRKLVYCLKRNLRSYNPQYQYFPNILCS

[6] = target: T6, Group 10 secretory phospholipase A2 (Homo sapiens, UniProt O15496); experiment: Inhibition of human sPLA2 group 10
T6 sequence (O15496 whole entry): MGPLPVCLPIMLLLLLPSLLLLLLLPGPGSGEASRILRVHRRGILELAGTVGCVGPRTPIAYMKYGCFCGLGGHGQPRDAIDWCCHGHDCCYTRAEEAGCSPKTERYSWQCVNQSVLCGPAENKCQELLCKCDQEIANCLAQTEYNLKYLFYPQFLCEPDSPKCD

[7] = target: T7, Group 10 secretory phospholipase A2 (Mus musculus, UniProt Q9QXX3); experiment: Inhibition of mouse sPLA2 group 10
T7 sequence (Q9QXX3 whole entry): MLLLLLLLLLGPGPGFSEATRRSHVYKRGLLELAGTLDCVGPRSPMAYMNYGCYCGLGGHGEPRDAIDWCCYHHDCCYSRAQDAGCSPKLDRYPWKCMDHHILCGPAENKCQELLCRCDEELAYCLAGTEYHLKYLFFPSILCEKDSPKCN

[8] = target: Phospholipase A2, membrane associated (Oryctolagus cuniculus, UniProt P14422); experiment: Inhibition of rabbit sPLA2 group 2A
Sequence of Phospholipase A2, membrane associated (Oryctolagus cuniculus, UniProt P14422) (P14422 whole entry): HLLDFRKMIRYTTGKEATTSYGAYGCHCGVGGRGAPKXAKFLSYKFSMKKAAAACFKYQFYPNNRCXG

SMILES | IC50 [1] [µM] | IC50 [2] [µM] | IC50 [3] [µM] | IC50 (Phospholipase A2 group V [4]) [µM] | IC50 (Phospholipase A2 group V [5]) [µM] | IC50 [6] [µM] | IC50 [7] [µM] | IC50 [8] [µM]
Oc1ccc(C2CCc3ccc(O)cc3O2)cc1 (stereo not drawn) | > 3.3 | > 3.3 | > 3.3 | – | – | – | – | –
Cc1c(O)c(C(=O)Cc2ccccc2)c(O)c(C(=O)Cc2ccccc2)c1O | – | > 1.6 | > 1.6 | > 1.6 | > 1.6 | > 1.6 | > 1.6 | –
CCCCCCCCCCCC(=O)c1cc(C)cc(C(=O)CCCCCCCCCCC)c1O | – | > 1.6 | > 1.6 | > 1.6 | > 1.6 | > 1.6 | > 1.6 | –
CCCCCCCCCCCCc1c(O)c(C(C)=O)c(O)c(C(C)=O)c1O | – | > 1.6 | > 1.6 | > 1.6 | > 1.6 | > 1.6 | > 1.6 | –
CCCCCCCCCCCC(=O)c1c(O)c(C)c(O)c(C(=O)CCCCCCCCCCC)c1O | 0.08 | 0.06 | 0.69 | 1.6 | 0.53 | > 1.6 | > 1.6 | –
CC(=O)c1c(O)c(C)c(O)c(C(C)=O)c1O | – | > 1.6 | > 1.6 | > 1.6 | > 1.6 | > 1.6 | > 1.6 | –
CCCCCCCCCCCC(=O)c1cc(C(=O)CCCCCCCCCCC)c(O)cc1O | – | > 1.6 | > 1.6 | > 1.6 | > 1.6 | > 1.6 | > 1.6 | –
CCCCCCCCCCCC(=O)c1c(O)c(C)c(O)c(C(C)=O)c1O | – | > 1.6 | > 1.6 | > 1.6 | > 1.6 | > 1.6 | > 1.6 | –
CCCCCCCCCCCCc1c(O)cc(O)c(C(=O)CCCCCCCCCCC)c1O | – | > 1.6 | > 1.6 | > 1.6 | > 1.6 | > 1.6 | > 1.6 | –
CCCCCCCCCCCC(=O)c1c(O)c(C(=O)CCCCCCCCCCC)c(O)c(C2CC(c3ccc(O)cc3)Oc3cc(O)ccc32)c1O (stereo not drawn) | – | 0.03 | – | 0.52 | – | – | > 1.6 | –
CCCCCCCCCCCC(=O)c1c(O)cc(O)c(C(=O)CCCCCCCCCCC)c1O [DIDODECANOYLPHLOROGLUCINOL] | 0.09 | 0.11 | 1.6 | 1.6 | 1.6 | > 1.6 | > 1.6 | 0.01
